Reference: the supplement of paper PMC11061612

Legend:
EW-3 (Ewing's Sarcoma) [1] = assay: Bliss excess, mean over the matrix (fraction); higher = more synergy
How it was run: (§1)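 Bliss excess equals the observed combination effect minus the expected value EA + EB − EA·EB, where EA and EB are the effects of each agent alone. Combination Emax is the second-highest inhibition within the matrix. Inhibition was scaled from CellTiter-Glo 2.0 luminescence, with 0 set by vehicle wells and 1 by blank wells, after 72 hours of two-drug dosing of cells plated in 1536-well plates.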

GI-1 (Glioblastoma) [2] = assay: as above
How it was run: as §1

[3] = test system: H-EMC-SS (Chondrosarcoma); assay: as above
How it was run: as §1

[4] = test system: HSC-2 (Oral Cavity Carcinoma); assay: as above
How it was run: as §1

[5] = test system: JHH-7 (Hepatocellular Carcinoma); assay: as above
How it was run: as §1

[6] = test system: KINGS-1 (Low Grade Glioma); assay: as above
How it was run: as §1

[7] = test system: LC4-1 (B-Lymphoblastic Leukemia); assay: as above
How it was run: as §1

NB7 (Neuroblastoma) [8] = assay: as above
How it was run: as §1

[9] = test system: NCI-N87 (Gastric Carcinoma); assay: as above
How it was run: as §1

[10] = test system: OCUB-M (Breast Carcinoma); assay: as above
How it was run: as §1

[11] = test system: OCUM-1 (Gastric Carcinoma); assay: as above
How it was run: as §1

[12] = test system: SCC-9 (Oral Cavity Carcinoma); assay: as above
How it was run: as §1

[13] = test system: SNU-C1 (Colorectal Carcinoma); assay: as above
How it was run: as §1

[14] = test system: TGBC11TKB (Gastric Carcinoma); assay: as above
How it was run: as §1

[15] = test system: VMRC-LCD (Lung Adenocarcinoma); assay: as above
How it was run: as §1

EW-3 (Ewing's Sarcoma) [16] = assay: combination Emax (second highest fraction inhibited in the dose matrix, 72 h); higher = more inhibition; extreme values may be limits of the assay
How it was run: as §1

GI-1 (Glioblastoma) [17] = assay: as above
How it was run: as §1

[18] = test system: H-EMC-SS (Chondrosarcoma); assay: as above
How it was run: as §1

[19] = test system: HSC-2 (Oral Cavity Carcinoma); assay: as above
How it was run: as §1

[20] = test system: JHH-7 (Hepatocellular Carcinoma); assay: as above
How it was run: as §1

[21] = test system: KINGS-1 (Low Grade Glioma); assay: as above
How it was run: as §1

[22] = test system: LC4-1 (B-Lymphoblastic Leukemia); assay: as above
How it was run: as §1

NB7 (Neuroblastoma) [23] = assay: as above
How it was run: as §1

[24] = test system: NCI-N87 (Gastric Carcinoma); assay: as above
How it was run: as §1

[25] = test system: OCUB-M (Breast Carcinoma); assay: as above
How it was run: as §1

[26] = test system: OCUM-1 (Gastric Carcinoma); assay: as above
How it was run: as §1

[27] = test system: SCC-9 (Oral Cavity Carcinoma); assay: as above
How it was run: as §1

[28] = test system: SNU-C1 (Colorectal Carcinoma); assay: as above
How it was run: as §1

[29] = test system: TGBC11TKB (Gastric Carcinoma); assay: as above
How it was run: as §1

[30] = test system: VMRC-LCD (Lung Adenocarcinoma); assay: as above
How it was run: as §1

## Cc1nc(-c2cn3c(n2)-c2ccc(-c4cnn(C(C)(C)C(N)=O)c4)cc2OCC3)n(C(C)C)n1 [Taselisib] + O=C(Nc1ccc2[nH]nc(-c3ccncc3)c2c1)[C@@H]1CCN(CC(=O)N2CCN(c3ccc(-c4ncccn4)cc3)CC2)C1 [SCH772984] (first compound max 10 µM, 7x7, partner max 5 µM)
EW-3 (Ewing's Sarcoma) [1]
  Bliss excess: 0.0884
GI-1 (Glioblastoma) [2]
  Bliss excess: 0.111
[3]
  Bliss excess: 0.156
[4]
  Bliss excess: 0.0341
[5]
  Bliss excess: 0.0389
[6]
  Bliss excess: 0.139
[7]
  Bliss excess: 0.0661
NB7 (Neuroblastoma) [8]
  Bliss excess: -0.0014
[9]
  Bliss excess: 0.0215
[10]
  Bliss excess: 0.0341
[11]
  Bliss excess: 0.016
[12]
  Bliss excess: 0.151
[13]
  Bliss excess: 0.108
[14]
  Bliss excess: 0.177
[15]
  Bliss excess: -0.0342
EW-3 (Ewing's Sarcoma) [16]
  combination Emax: 0.608
GI-1 (Glioblastoma) [17]
  combination Emax: 0.732
[18]
  combination Emax: 0.927
[19]
  combination Emax: 0.994
[20]
  combination Emax: 0.526
[21]
  combination Emax: 0.749
[22]
  combination Emax: 0.588
NB7 (Neuroblastoma) [23]
  combination Emax: 0.264
[24]
  combination Emax: 0.947
[25]
  combination Emax: 1
[26]
  combination Emax: 0.983
[27]
  combination Emax: 0.959
[28]
  combination Emax: 0.932
[29]
  combination Emax: 0.765
[30]
  combination Emax: 0.149

## O=C(c1cc(Cc2n[nH]c(=O)c3ccccc23)ccc1F)N1CCN(C(=O)C2CC2)CC1 [Olaparib] + CC1(C)CCC(CN2CCN(c3ccc(C(=O)NS(=O)(=O)c4ccc(NCC5CCOCC5)c([N+](=O)[O-])c4)c(Oc4cnc5[nH]ccc5c4)c3)CC2)=C(c2ccc(Cl)cc2)C1 [Venetoclax] (first compound max 10 µM, 7x7, partner max 1 µM)
EW-3 (Ewing's Sarcoma) [1]
  Bliss excess: 0.0351
GI-1 (Glioblastoma) [2]
  Bliss excess: 0.0518
[3]
  Bliss excess: -0.0572
[4]
  Bliss excess: -0.0219
[5]
  Bliss excess: -0.032
[6]
  Bliss excess: -0.0359
[7]
  Bliss excess: 0.0096
NB7 (Neuroblastoma) [8]
  Bliss excess: -0.0285
[9]
  Bliss excess: -0.0552
[10]
  Bliss excess: -0.0483
[11]
  Bliss excess: -0.0472
[12]
  Bliss excess: -0.047
[13]
  Bliss excess: -0.0425
[14]
  Bliss excess: -0.0224
[15]
  Bliss excess: -0.0266
EW-3 (Ewing's Sarcoma) [16]
  combination Emax: 0.887
GI-1 (Glioblastoma) [17]
  combination Emax: 0.265
[18]
  combination Emax: 0.119
[19]
  combination Emax: 0.115
[20]
  combination Emax: 0.173
[21]
  combination Emax: 0.131
[22]
  combination Emax: 1
NB7 (Neuroblastoma) [23]
  combination Emax: 0.301
[24]
  combination Emax: 0.121
[25]
  combination Emax: 0.17
[26]
  combination Emax: 0.172
[27]
  combination Emax: 0.0718
[28]
  combination Emax: 0.0848
[29]
  combination Emax: 0.183
[30]
  combination Emax: 0.151

## N#Cc1cnc(Nc2cc(NC[C@H]3CNCCO3)c(C(F)(F)F)cn2)cn1 [SRA737] + C=CCn1c(=O)c2cnc(Nc3ccc(N4CCN(C)CC4)cc3)nc2n1-c1cccc(C(C)(C)O)n1 [AZD1775] (first compound max 10 µM, partner max 1 µM)
EW-3 (Ewing's Sarcoma) [1]
  Bliss excess: 0.0086
GI-1 (Glioblastoma) [2]
  Bliss excess: 0.0907
[3]
  Bliss excess: 0.0311
[4]
  Bliss excess: 0.0573
[5]
  Bliss excess: -0.0263
[6]
  Bliss excess: 0.0035
[7]
  Bliss excess: 0.0618
NB7 (Neuroblastoma) [8]
  Bliss excess: 0.0949
[9]
  Bliss excess: 0.0275
[10]
  Bliss excess: 0.102
[11]
  Bliss excess: 0.0537
[12]
  Bliss excess: 0.0078
[13]
  Bliss excess: 0.12
[14]
  Bliss excess: 0.0401
[15]
  Bliss excess: -0.0067
EW-3 (Ewing's Sarcoma) [16]
  combination Emax: 0.501
GI-1 (Glioblastoma) [17]
  combination Emax: 0.91
[18]
  combination Emax: 0.354
[19]
  combination Emax: 0.584
[20]
  combination Emax: 0.543
[21]
  combination Emax: 0.412
[22]
  combination Emax: 0.891
NB7 (Neuroblastoma) [23]
  combination Emax: 0.849
[24]
  combination Emax: 0.828
[25]
  combination Emax: 0.637
[26]
  combination Emax: 0.53
[27]
  combination Emax: 0.326
[28]
  combination Emax: 0.789
[29]
  combination Emax: 0.919
[30]
  combination Emax: 0.778

## CN(CCO)CC[C@H](CSc1ccccc1)Nc1ccc(S(=O)(=O)NC(=O)c2ccc(N3CCC([C@@H](O)c4ccccc4-c4ccc(Cl)cc4)CC3)cc2)cc1S(=O)(=O)C(F)(F)F [AZD4320] + CC(=O)O[C@H]1C(=O)[C@@]2(C)[C@H]([C@H](OC(=O)c3ccccc3)[C@]3(O)C[C@H](OC(=O)[C@H](O)[C@@H](NC(=O)c4ccccc4)c4ccccc4)C(C)=C1C3(C)C)[C@]1(OC(C)=O)CO[C@@H]1C[C@@H]2O [Paclitaxel] (first compound max 1 µM, 7x7, partner max 3 µM)
EW-3 (Ewing's Sarcoma) [1]
  Bliss excess: 0.0269
GI-1 (Glioblastoma) [2]
  Bliss excess: 0.0374
[3]
  Bliss excess: 0.0785
[4]
  Bliss excess: 0.0087
[5]
  Bliss excess: 0.144
[6]
  Bliss excess: 0.18
[7]
  Bliss excess: 0.0047
NB7 (Neuroblastoma) [8]
  Bliss excess: 0.131
[9]
  Bliss excess: 0.182
[10]
  Bliss excess: 0.0811
[11]
  Bliss excess: 0.0074
[12]
  Bliss excess: 0.109
[13]
  Bliss excess: 0.179
[14]
  Bliss excess: 0.0373
[15]
  Bliss excess: 0.0035
EW-3 (Ewing's Sarcoma) [16]
  combination Emax: 0.961
GI-1 (Glioblastoma) [17]
  combination Emax: 1
[18]
  combination Emax: 0.672
[19]
  combination Emax: 1
[20]
  combination Emax: 0.951
[21]
  combination Emax: 0.966
[22]
  combination Emax: 1
NB7 (Neuroblastoma) [23]
  combination Emax: 0.94
[24]
  combination Emax: 0.921
[25]
  combination Emax: 1
[26]
  combination Emax: 0.955
[27]
  combination Emax: 0.745
[28]
  combination Emax: 0.829
[29]
  combination Emax: 0.994
[30]
  combination Emax: 0.918

## C[C@@H]1COCCN1c1cc(C2([S@](C)(=N)=O)CC2)nc(-c2ccnc3[nH]ccc23)n1 [AZD6738] + C1CC(C1)(C(=O)[O-])C(=O)[O-].N.N.[Pt+2] [Carboplatin] (first compound max 10 µM, 7x7, partner max 10 µM)
EW-3 (Ewing's Sarcoma) [1]
  Bliss excess: 0.0061
GI-1 (Glioblastoma) [2]
  Bliss excess: 0.0044
[3]
  Bliss excess: -0.0251
[4]
  Bliss excess: 0.0029
[5]
  Bliss excess: -0.0368
[6]
  Bliss excess: -0.0713
[7]
  Bliss excess: -0.0504
NB7 (Neuroblastoma) [8]
  Bliss excess: -0.0115
[9]
  Bliss excess: -0.0332
[10]
  Bliss excess: -0.0165
[11]
  Bliss excess: -0.0496
[12]
  Bliss excess: -0.0334
[13]
  Bliss excess: -0.0744
[14]
  Bliss excess: -0.0618
[15]
  Bliss excess: -0.0159
EW-3 (Ewing's Sarcoma) [16]
  combination Emax: 0.77
GI-1 (Glioblastoma) [17]
  combination Emax: 0.843
[18]
  combination Emax: 0.344
[19]
  combination Emax: 0.598
[20]
  combination Emax: 0.292
[21]
  combination Emax: 0.187
[22]
  combination Emax: 0.896
NB7 (Neuroblastoma) [23]
  combination Emax: 0.508
[24]
  combination Emax: 0.71
[25]
  combination Emax: 0.417
[26]
  combination Emax: 0.647
[27]
  combination Emax: 0.293
[28]
  combination Emax: 0.408
[29]
  combination Emax: 0.653
[30]
  combination Emax: 0.697

## CN(CCO)CC[C@H](CSc1ccccc1)Nc1ccc(S(=O)(=O)NC(=O)c2ccc(N3CCC([C@@H](O)c4ccccc4-c4ccc(Cl)cc4)CC3)cc2)cc1S(=O)(=O)C(F)(F)F [AZD4320] + Nc1ccn([C@@H]2O[C@H](CO)[C@@H](O)C2(F)F)c(=O)n1 [Gemcitabine] (first compound max 1 µM, 7x7, partner max 0.3 µM)
EW-3 (Ewing's Sarcoma) [1]
  Bliss excess: -0.0522
GI-1 (Glioblastoma) [2]
  Bliss excess: 0.112
[3]
  Bliss excess: 0.0342
[4]
  Bliss excess: 0.0613
[5]
  Bliss excess: -0.033
[6]
  Bliss excess: -0.0068
[7]
  Bliss excess: 0.0156
NB7 (Neuroblastoma) [8]
  Bliss excess: -0.0153
[9]
  Bliss excess: -0.0058
[10]
  Bliss excess: 0.0471
[11]
  Bliss excess: 0.0262
[12]
  Bliss excess: -0.0247
[13]
  Bliss excess: -0.0482
[14]
  Bliss excess: 0.0225
[15]
  Bliss excess: -0.0095
EW-3 (Ewing's Sarcoma) [16]
  combination Emax: 0.91
GI-1 (Glioblastoma) [17]
  combination Emax: 0.936
[18]
  combination Emax: 0.832
[19]
  combination Emax: 1
[20]
  combination Emax: 0.284
[21]
  combination Emax: 0.502
[22]
  combination Emax: 1
NB7 (Neuroblastoma) [23]
  combination Emax: 0.556
[24]
  combination Emax: 0.822
[25]
  combination Emax: 0.812
[26]
  combination Emax: 0.905
[27]
  combination Emax: 0.539
[28]
  combination Emax: 0.533
[29]
  combination Emax: 0.882
[30]
  combination Emax: 0.288
